Test results reported in patent US20100062969A1, “HYDROPHILIC POLYMER-CONJUGATED LIPIDS FOR PEPTIDE AND PROTEIN FOLDING DISORDERS” (priority 2006, published 2010).

Tests used:
[1] = α-Helicity of VIP by circular dichroism; type: physicochemical
Experimental: (§1) • Lipid:peptide saturation ratio and number of peptide/micelle were determined via fluorescent spectroscopy where 10 μM of VIP was incubuated with varying concentration of SSM or SSMM to achieve lipid:peptide molar ratio ranging from 0 to 40. The data was then fitted into a simple, rectangular hyperbola curve using SigmaPlot® to determine lipid:peptide saturation ratio. The maximum number of peptide molecules that could interact with each micelle was calculated from the aggregation number of lipid monomers per micelle (˜90) for both SSM and SSMM (Ashok B, et al. J Pharm Sci 2004; 93: 2476-2487). • α-helicity was determined by CD using 20 μM of VIP in 5 mM of SSM or SSMM (lipid:VIP ratio of 250:1). The same samples were used for particle size measurement. • Fluorescent anisotropy was conducted using 100 μM of VIP in 4.5 mM of SSM or SSMM (lipid:VIP ratio of 45:1) which is close to the lipid:peptide saturation ratio. The measurements were done using Perkin Elmer luminescence spectrometer LS50B.

[2] = Circulating half life of VIP in vivo; settings: read-out: Circulating t½ in vivo (converted)
[3] = Fluorescent anisotropy of VIP; type: physicochemical; settings: 100 μM VIP, […] SSM or SSMM (lipid:VIP 45:1)
Experimental: as §1

[4] = Stability of VIP and VIP-SSM in human serum; settings: buffer or solvent
Experimental: Since VIP is highly susceptible to enzymatic hydrolysis in serum, we have also tested serum stability of SSM-VIP formulation in a surrogate in vitro system. Briefly, DSPE-PEG2000 (5 mM) was weighed and hydrated (10 mM HEPES buffer, pH 7.4). VIP (5 nmol) was added to preformed SSM and incubated for 2 h at 25° C. to form VIP-SSM. Formulation was then incubated in human serum (25, 50% v/v). Sample aliquots were removed and analyzed on 0, 1, 3, 5 and 7 days following storage at 37° C. These samples were analyzed for the % of intact VIP associated with SSM following separation of unbound VIP from SSM.

CC[C@H](C)[C@H](NC(=O)[C@H](CO)NC(=O)[C@H](CC(N)=O)NC(=O)[C@H](CC(C)C)NC(=O)[C@H](Cc1ccc(O)cc1)NC(=O)[C@H](CCCCN)NC(=O)[C@H](CCCCN)NC(=O)[C@@H](NC(=O)[C@H](C)NC(=O)[C@H](CCSC)NC(=O)[C@H](CCC(N)=O)NC(=O)[C@H](CCCCN)NC(=O)[C@H](CCCNC(=N)N)NC(=O)[C@H](CC(C)C)NC(=O)[C@H](CCCNC(=N)N)NC(=O)[C@@H](NC(=O)[C@H](Cc1ccc(O)cc1)NC(=O)[C@H](CC(N)=O)NC(=O)[C@H](CC(=O)O)NC(=O)[C@@H](NC(=O)[C@H](Cc1ccccc1)NC(=O)[C@@H](NC(=O)[C@H](C)NC(=O)[C@H](CC(=O)O)NC(=O)[C@H](CO)NC(=O)[C@@H](N)Cc1c[nH]cn1)C(C)C)[C@@H](C)O)[C@@H](C)O)C(C)C)C(=O)N[C@@H](CC(C)C)C(=O)N[C@@H](CC(N)=O)C(N)=O [VIP in saline, vasoactive intestinal peptide]
% α-Helix of VIP [1]: 5 ± 1% | half-life [2]: 18 min | Anisotropy [3]: 0.052 ± 0.004 | metabolised at 24 h [4]: ~65%
